Where two headings read alike, the source gives them in different places.
Columns and labels:
κ-opioid receptor [1] = molecular target: T1, κ-opioid receptor (Homo sapiens, UniProt P41145); test: κ-opioid receptor radioligand binding assay ([3H]-U69,593); set-up: expressed in transfected cells; host or cells: HEK-293
Method: κ-opioid Receptor Binding Assay Procedures: Membranes from recombinant HEK-293 cells expressing the human κ opioid receptor (κ) (cloned in house) were prepared by lysing cells in ice cold hypotonic buffer (2.5 mM MgCl2, 50 mM HEPES, pH 7.4) (10 mL/10 cm dish) followed by homogenization with a tissue grinder/Teflon pestle. Membranes were collected by centrifugation at 30,000×g for 15 min at 4° C. and pellets were resuspended in hypotonic buffer to a final concentration of 1-3 mg/mL. Protein concentrations were determined using the BioRad protein assay reagent with bovine serum albumen as standard. Aliquots of κ receptor membranes were stored at −80° C.
Radioligand dose displacement assays used 0.4 nM [^3H]-U69,593 (GE Healthcare, Piscataway, N.J.; 40 Ci/mmole) with 15 μg membrane protein (recombinant κ opioid receptor expressed in HEK 293 cells; in-house prep) in a final volume of 200 μl binding buffer (5% DMSO, 50 mM Trizma base, pH 7.4). Non-specific binding was determined in the presence of 10 μM unlabeled naloxone or U69,593. All reactions were performed in 96-well polypropylene plates for 1 hr at a temperature of about 25° C.

κ-opioid receptor [2] = molecular target: T1, κ-opioid receptor; test: κ-opioid receptor β-Arr2 activity response, U2OS cells; format: cell-based; set-up: expressed in transfected cells; host or cells: U-2 OS
μ-opioid receptor [3] = molecular target: T2, μ-opioid receptor (Homo sapiens, UniProt P35372); test: cell-based; set-up: purchased Perkin Elmer, Shelton, Conn; settings: U2OS cells; for Emax: read-out: β-Arr2 μ Emax
κ-opioid receptor [4] = molecular target: T1, κ-opioid receptor; test: κ-opioid receptor GTPγS functional assay, U2OS cells; format: biochemical; set-up: expressed in transfected cells; host or cells: U-2 OS
Method: (§1) Plates were incubated for 30 min at a temperature of about 25° C. with shaking.

μ-opioid receptor [5] = molecular target: T2, μ-opioid receptor; test: μ-opioid receptor radioligand binding assay ([3H]-diprenorphine); set-up: purchased Perkin Elmer, Shelton, Conn; host or cells: HEK-293 or CHO
Method: μ-opioid Receptor Binding Assay Procedures: Radioligand dose-displacement binding assays for μ-opioid receptors used 0.3 nM [^3H]-diprenorphine (Perkin Elmer, Shelton, Conn.), with […] membrane protein/well in a final volume of 500 μl binding buffer (10 mM MgCl2, 1 mM EDTA, 5% DMSO, 50 mM HEPES, pH 7.4). Reactions were carried out in the absence or presence of increasing concentrations of unlabeled naloxone. All reactions were conducted in 96-deep well polypropylene plates for 2 hr at room temperature. […] The data were analyzed using the one-site competition curve fitting functions in GraphPad PRISM™ v. 3.0 or higher (San Diego, Calif.), or an in-house function for one-site competition curve-fitting.

μ-opioid receptor [6] = molecular target: T2, μ-opioid receptor; test: μ-opioid receptor GTPγS functional assay, U2OS cells; settings: for Emax: read-out: GTPγS μ Emax
μ-opioid receptor [7] = molecular target: T2, μ-opioid receptor; test: biochemical; set-up: purchased Perkin Elmer, Shelton, Conn; host or cells: HEK-293 or CHO; settings: HEK-293 or CHO cells; for Emax: relative to DAMGO, read-out: GTPγS μ Emax; for EC50: read-out: GTPγS μ EC50
κ-opioid receptor [8] = molecular target: T1, κ-opioid receptor; test: κ-opioid receptor [35S]GTPγS functional assay, HEK-293 or CHO cells; format: biochemical; set-up: expressed in transfected cells; host or cells: HEK-293; settings: for Emax: relative to U69,593
Method: as §1

[9] = HEK-293 or CHO cells, read-out: Ki (nM) Opioid Receptor κ
[10] = U2OS cells, read-out: β-Arr2 κ EC50
[11] = U2OS cells, read-out: GTPγS κ EC50
[12] = HEK-293 or CHO cells, read-out: Ki (nM) Opioid Receptor μ
[13] = HEK-293 or CHO cells, read-out: GTPγS κ EC50

T1 sequence (P41145 whole entry): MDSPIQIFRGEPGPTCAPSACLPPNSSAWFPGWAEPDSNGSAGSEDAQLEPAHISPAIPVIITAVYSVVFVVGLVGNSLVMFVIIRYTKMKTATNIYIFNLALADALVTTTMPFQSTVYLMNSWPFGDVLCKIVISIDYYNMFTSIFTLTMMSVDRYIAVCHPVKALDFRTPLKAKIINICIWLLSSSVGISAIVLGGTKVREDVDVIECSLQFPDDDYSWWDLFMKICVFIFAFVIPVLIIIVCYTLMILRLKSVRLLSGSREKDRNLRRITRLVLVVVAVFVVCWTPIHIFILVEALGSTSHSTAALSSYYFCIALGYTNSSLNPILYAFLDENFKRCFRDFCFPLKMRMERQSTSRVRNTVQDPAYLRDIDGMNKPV
T2 sequence (P35372 whole entry, species assumed): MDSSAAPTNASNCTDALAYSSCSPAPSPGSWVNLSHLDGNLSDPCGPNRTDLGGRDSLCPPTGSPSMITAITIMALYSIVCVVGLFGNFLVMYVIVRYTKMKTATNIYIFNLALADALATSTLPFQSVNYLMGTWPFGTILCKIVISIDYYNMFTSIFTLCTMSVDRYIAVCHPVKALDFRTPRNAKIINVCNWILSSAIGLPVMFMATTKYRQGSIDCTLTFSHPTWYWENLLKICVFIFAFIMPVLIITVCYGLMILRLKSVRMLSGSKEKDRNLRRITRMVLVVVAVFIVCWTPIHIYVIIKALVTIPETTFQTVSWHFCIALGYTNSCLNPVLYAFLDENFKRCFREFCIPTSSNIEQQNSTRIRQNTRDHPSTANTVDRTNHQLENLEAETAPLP

Row | SMILES | Ki (κ-opioid receptor [1]; [9]) [nM] | Emax (κ-opioid receptor [2]; U2OS cells) [%] | EC50 (κ-opioid receptor [2]; [10]) [nM] | Emax (μ-opioid receptor [3]) [%] | Emax (κ-opioid receptor [4]; U2OS cells) [%] | EC50 (κ-opioid receptor [4]; [11]) [nM] | Ki (μ-opioid receptor [5]; [12]) [nM] | EC50 (μ-opioid receptor [6]) [nM] | Emax (μ-opioid receptor [6]) [%] | Emax (μ-opioid receptor [7]) [%] | EC50 (κ-opioid receptor [8]; [13]) [nM] | Emax (κ-opioid receptor [8]; HEK-293 or CHO cells) [%] | EC50 (μ-opioid receptor [3]; read-out: β-Arr2 μ EC50) [nM] | EC50 (μ-opioid receptor [7]) [nM] | Ki (κ-opioid receptor [1]) [nM] | EC50 (κ-opioid receptor [2]) [nM] | EC50 (κ-opioid receptor [4]) [nM] | Ki (μ-opioid receptor [5]) [nM] | EC50 (κ-opioid receptor [8]) [nM]
1 | C[C@H]1[C@H]2Cc3ccc(O)cc3[C@]1(CCNC(=O)c1ccc(C(=O)O)cc1)CCN2CC1CC1 [Compound 32, 4-((2-((2R,6R,11R)-3-(cyclopropyl-methyl)-8-hydroxy-11-methyl-2,3,4,5-tetrahydro-2,6-methanobenzo[d]azocin-6(1H)-yl)ethyl)carbamoyl)benzoic acid] | 35 ± 5.97 | 11.3 ± 1.2 | 26.7 ± 10.5 | -1 | 97.7 ± 4.67 | 35.7 ± 5.29 | 5.62 ± 1.41 | 2.16 ± 0.38 | 57.3 ± 5.04 | -1 | 144 ± 25.4 | 91.3 ± 9.94 | – | – | – | – | – | – | –
2 | C[C@H]1[C@H]2Cc3ccc(O)cc3[C@]1(CCCC(=O)N(C)C)CCN2CC1CCC1 [Compound 28, 4-((2R,6R,11R)-3-(cyclobutylmethyl)-8-hydroxy-11-methyl-2,3,4,5-tetrahydro-2,6-methanobenzo[d]azocin-6(1H)-yl)-N,N-dimethylbutanamide] | 0.22 ± 0.056 | 45 ± 2.08 | 2.37 ± 0.62 | 3.7 ± 0.49 | 104 ± 2.85 | 0.49 ± 0.016 | 1.45 ± 0.013 | 2.71 ± 0.67 | 57.3 ± 6.57 | 1 | 4.58 ± 0.38 | 95.3 ± 1.45 | 30.5 ± 4.44 | – | – | – | – | – | –
3 | C[C@H]1[C@H]2Cc3ccc(O)cc3[C@]1(CCCCN[C@@H](Cc1ccccc1)C(N)=O)CCN2CC1CC1 [Compound 23, (S)-2-((4-((2R,6R,11R)-3-(cyclopropyl-methyl)-8-hydroxy-11-methyl-2,3,4,5-tetrahydro-2,6-methanobenzo[d]azocin-6(1H)-yl)butyl)amino)-3-phenyl-propanamide] | 0.048 ± 0.01 | 30 ± 0.58 | 0.16 ± 0.055 | -1.5 | 104 ± 4.06 | 0.079 ± 0.01 | 0.2 ± 0.012 | 0.28 ± 0.073 | 56 ± 3.06 | 1 | 1.49 ± 0.58 | 99 ± 6.35 | – | – | – | – | – | – | –
4 | C[C@H]1[C@H]2Cc3ccc(O)cc3[C@]1(CCCCN[C@@H](CCCCN)C(=O)O)CCN2CC1CC1 [Compound 25, (4-((2R,6R,11R)-3-(cyclopropyl-methyl)-8-hydroxy-11-methyl-2,3,4,5-tetrahydro-2,6-methanobenzo[d]azocin-6(1H)-yl)butyl)-L-lysine] | 0.077 ± 0.014 | 50 ± 0.58 | 0.1 ± 0.019 | -1.4 | 99 ± 4.58 | 0.17 ± 0.038 | 3.58 ± 1.45 | 1.29 ± 0.11 | 48.3 ± 0.67 | 1 | 2.33 ± 0.51 | 104 ± 5.03 | – | – | – | – | – | – | –
5 | COC(=O)[C@H](C)NCC[C@]12CCN(CC3CC3)[C@H](Cc3ccc(OC)cc31)[C@@H]2C [Compound 38, methyl (2-((2R,6R,11R)-3-(cyclopropyl-methyl)-8-methoxy-11-methyl-2,3,4,5-tetrahydro-2,6-methanobenzo[d]azocin-6(1H)-yl)ethyl)-L-alaninate] | 0.78 ± 0.14 | 70 ± 2 | 141 ± 45.5 | -0.17 ± 0.93 | 112 ± 2.91 | 2.11 ± 0.23 | 94.7 ± 18.6 | 137 ± 16.1 | 53 ± 3.51 | 15.8 ± 1.03 | 287 ± 30 | 109 ± 5.46 | – | 551 ± 173 | – | – | – | – | –
6 | COc1ccc2c(c1)[C@]1(CCOCc3ccccc3)CCN(CC3CC3)[C@H](C2)[C@@H]1C [Compound 45, (2R,6S,11R)-6-(2-(benzyloxy)ethyl)-3-(cyclopropylmethyl)-8-methoxy-11-methyl-1,2,3,4,5,6-hexahydro-2,6-methanobenzo[d]azocine] | 0.16 ± 0.03 | 84 ± 2.08 | 26.7 ± 8.55 | 1.33 ± 0.33 | 96.3 ± 5.17 | 0.95 ± 0.14 | 543 ± 116 | 38 ± 2.09 | 103 ± 6.47 | 16.3 ± 0.88 | 16.3 ± 0.74 | 104 ± 5.03 | – | 267 ± 20.1 | – | – | – | – | –
7 | COC(=O)c1ccc(CC(=O)NCC[C@]23CCN(CC4CC4)[C@H](Cc4ccc(OC)cc42)[C@@H]3C)cc1 [Compound 30, methyl 4-(2-((2-((2R,6R,11R)-3-(cyclopropylmethyl)-8-methoxy-11-methyl-2,3,4,5-tetrahydro-2,6-methano-benzo[d]azocin-6(1H)-yl)ethyl)amino)-2-oxoethyl)benzoate] | 6.18 ± 1.72 | -1 | – | 1 ± 0.5 | 104 ± 2.96 | 13.1 ± 1.48 | 389 ± 124 | 230 ± 27.5 | 51 ± 3.51 | 0 | 259 ± 33.1 | 83 ± 7.77 | – | – | – | – | – | – | –
8 | COc1ccc2c(c1)[C@]1(CCO)CCN(CC3CC3)[C@H](C2)[C@@H]1C [Compound 43, 2-((2R,6S,11R)-3-(cyclopropylmethyl)-8-methoxy-11-methyl-2,3,4,5-tetrahydro-2,6-methanobenzo[d]azocin-6(1H)-yl)ethan-1-ol] | – | 59.3 ± 3.18 | – | -1 | 102 ± 3.71 | – | – | 99 ± 5.84 | 107 ± 5.83 | 22 ± 1.58 | – | 97.7 ± 5.36 | – | 1150 ± 199 | 3.63 ± 0.7 | 494 ± 140 | 17.8 ± 1.45 | 233 ± 46.9 | 355 ± 63.6
9 | C[C@H]1[C@H]2Cc3ccc(O)cc3[C@]1(CCNC(=O)Cc1ccc(C(=O)O)cc1)CCN2CC1CC1 [Compound 31, 4-(2-((2-((2R,6R,11R)-3-(cyclopropyl-methyl)-8-hydroxy-11-methyl-2,3,4,5-tetrahydro-2,6-methanobenzo[d]azocin-6(1H)-yl)ethyl)amino)-2-oxoethyl)-benzoic acid] | 18.4 ± 3.6 | 29.7 ± 5.04 | 53.4 ± 8.62 | -1.25 | 104 ± 3.48 | 18.5 ± 2.16 | 25.1 ± 7.56 | 8.77 ± 1.37 | 58 ± 4.73 | 0 | 94.2 ± 33.8 | 88.7 ± 6.89 | – | – | – | – | – | – | –
10 | C[C@H]1[C@H]2Cc3ccc(O)cc3[C@]1(CCCC(N)=O)CCN2CC1CCC1 [Compound 29, 4-((2R,6R,11R)-3-(cyclobutylmethyl)-8-hydroxy-11-methyl-2,3,4,5-tetrahydro-2,6-methanobenzo[d]azocin-6(1H)-yl)butanamide] | 0.12 ± 0.019 | 45 ± 3 | 2.06 ± 0.32 | -1.5 | 108 ± 1.2 | 0.39 ± 0.016 | 1.82 ± 0.57 | 2.65 ± 0.89 | 41.3 ± 4.91 | 1 | 7.6 ± 1.67 | 87.7 ± 3.18 | – | – | – | – | – | – | –
11 | COC(=O)[C@H](CCCCN)NCCCC[C@]12CCN(CC3CC3)[C@H](Cc3ccc(O)cc31)[C@@H]2C [Compound 26, methyl (4-((2R,6R,11R)-3-(cyclopropyl-methyl)-8-hydroxy-11-methyl-2,3,4,5-tetrahydro-2,6-methanobenzo[d]azocin-6(1H)-yl)butyl)-L-lysinate] | 0.053 | 17.5 ± 2.72 | 0.081 ± 0.019 | 0 | 102 ± 3.48 | 0.14 | 0.73 ± 0.1 | 0.51 ± 0.054 | 40 ± 1.73 | 0.33 ± 0.67 | 0.19 ± 0.058 | 51 ± 2.04 | – | – | – | – | – | – | –

— patent US10130615B2, “Benzomorphan analogs and the use thereof” (priority 2014, dated 2018)
